{"source": "patent US5214153A", "about": "“Actinoplanes transformation process anti-hypertensive compound and method of use thereas” (Merck & Co., Inc., priority 1992, dated 1993)", "target": "T1, Angiotensin II (A II) receptor (Oryctolagus cuniculus, UniProt P34976)", "T1 construct": "125I-Sar1Ile8-angiotensin II displacement", "T1 sequence (P34976 1-359)": "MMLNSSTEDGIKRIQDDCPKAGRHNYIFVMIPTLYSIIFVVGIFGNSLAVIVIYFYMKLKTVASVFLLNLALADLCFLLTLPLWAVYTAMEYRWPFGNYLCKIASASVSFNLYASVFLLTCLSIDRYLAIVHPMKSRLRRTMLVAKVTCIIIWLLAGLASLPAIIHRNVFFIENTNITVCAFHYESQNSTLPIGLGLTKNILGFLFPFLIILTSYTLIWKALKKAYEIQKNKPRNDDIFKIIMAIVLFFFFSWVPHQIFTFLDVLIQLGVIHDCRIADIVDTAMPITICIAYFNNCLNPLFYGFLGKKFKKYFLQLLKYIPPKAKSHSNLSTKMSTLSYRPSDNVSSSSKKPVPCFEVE", "assay": "Receptor Binding Assay Using Rabbit Aortae Membrane Preparation (\"IC50\" assay)", "description": "This assay is also referred to herein as the \"IC50 \" assay.\nReceptor Binding Assay Using Rabbit Aortae Membrane Preparation\nThree frozen rabbit aortae (obtained from Pel-Freeze Biologicals) were suspended in 5 mM Tris-0.25M Sucrose, pH 7.4 buffer (50 mL) homogenized, and then centrifuged. The mixture was filtered through a cheesecloth and the supernatant was centrifuged for 30 minutes at 20,000 rpm at 4° C. The pellet thus obtained was resuspended in 30 mL of 50 mM Tris-5 mM MgCl2 buffer containing 0.2% Bovine Serum Albumin and 0.2 mg/mL Bacitratin and the suspension was used for 100 assay tubes. Samples tested for screening were done in duplicate. To the membrane preparation (0.25 mL) there was added ^125 I-Sar^1 Ile^8 -angiotensin II [obtained from New England Nuclear] (10 uL; 20,000 cpm) with or without the test sample and the mixture was incubated at 37° C. for 90 minutes. The mixture was then diluted with ice-cold 50 mM Tris-0.9% NaCl, pH 7.4 (4 mL) and filtered through a glass fiber filter (GF/B Whatman 2.4\" diameter). The filter was soaked in scintillation cocktail (10 mL) and counted for radioactivity using Packard 2660 Tricarb liquid scintillation counter. […]"}
{"smiles": "CC(O)CCc1nc(Cl)c(CO)n1Cc1ccc(-c2ccccc2-c2nnn[nH]2)cc1", "note": "(stereo not shown) [compound (I)]", "values": [{"measurement": "A II antagonist activity by the IC50 assay", "value": "exhibits A II antagonist activity"}]}
